These are literature values, as cited in US20130261032A1, “ADDITIVE FOR SUBTERRANEAN TREATMENT” (SCHLUMBERGER TECHNOLOGY CORPORATION, priority 2012, published 2013).

Where two headings read alike, the source gives them in different places.

In the case of `C[N+](C)(C)CC(=O)[O-]` [TMG, trimethyl glycine], the “acute oral toxicity, LD50” value (oral) is given as “greater than 10,000 mg/kg”. On to `CCO` [ethanol], for which, for the setting “in vivo, po”, the “acute oral toxicity, LD50” value is listed as 7060 mg/kg. Consider `CC(O)CO` (stereo not drawn) [propylene glycol], for which, for the setting “oral”, the “acute oral toxicity, LD50” value is 20,000 mg/kg.
